From the supplement of paper PMC10307832

What was measured:
Test in all cases: relative viability (nuclei count vs DMSO), 5 days (fraction); higher = more cells survive
[1] = compound: N#CC1(c2ccc(NC(=O)c3cccnc3NCc3ccncc3)cc2)CCCC1 [Apatinib] + CCNC(=O)c1noc(-c2cc(C(C)C)c(O)cc2O)c1-c1ccc(CN2CCOCC2)cc1 [Luminespib] (partner 0.01 µM)
Outline: (§1)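 Cells from lung cancer lines were seeded into 1536-well plates and, one day later, dosed by pin tool. Treatments were either a single drug or a fixed dose of an anchor drug with five library-drug doses (not always all listed) in √10 steps. After 5 days, nuclei were stained in a one-step fixation (final 0.05% Triton X-100, 1% formaldehyde, 1 ug/ml Hoechst) and counted on 4× images, and relative viability is the treated-to-vehicle nuclei ratio, as the median of duplicate plates.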

[2] = compound: CN(C)C(=N)NC(=N)N [Metformin] + CC(=O)Nc1cccc(-n2c(=O)n(C3CC3)c(=O)c3c(Nc4ccc(I)cc4F)n(C)c(=O)c(C)c32)c1 [Trametinib] (partner 0.02 µM)
Outline: as §1

[3] = compound: N#CC1(c2ccc(NC(=O)c3cccnc3NCc3ccncc3)cc2)CCCC1 [Apatinib] + CS(=O)(=O)CCNCc1ccc(-c2ccc3ncnc(Nc4ccc(OCc5cccc(F)c5)c(Cl)c4)c3c2)o1 [Lapatinib] (partner 2 µM)
Outline: as §1

[4] = compound: CN(C)C(=N)NC(=N)N [Metformin] + CS(=O)(=O)N1CCN(Cc2cc3nc(-c4cccc5[nH]ncc45)nc(N4CCOCC4)c3s2)CC1 [Pictilisib] (partner 1 µM)
Outline: as §1

In the case of NCI-H460, the relative viability ([1]; first compound 0.08 µM) is reported as 0.0389, the relative viability ([1]; first compound 0.253 µM) is reported as 0.0355 and the relative viability ([1]; first compound 0.8 µM) is reported as 0.0311. The relative viability ([1]; first compound 2.53 µM) was 0.0328, the relative viability ([1]; first compound 8 µM) was 0.0337 and the relative viability ([2]; first compound 31.62 µM) was 0.122. It also gave a relative viability ([2]; first compound 100 µM) of 0.136, a relative viability ([2]; first compound 316.23 µM) of 0.133 and a relative viability ([2]; first compound 1000 µM) of 0.253. The relative viability ([3]; first compound 0.08 µM) was 0.915, the relative viability ([3]; first compound 0.253 µM) was 0.93 and the relative viability ([3]; first compound 0.8 µM) was 0.796. The relative viability ([3]; first compound 2.53 µM) was 0.905, the relative viability ([3]; first compound 8 µM) was 0.777 and the relative viability ([4]; first compound 31.62 µM) was 0.41. The relative viability ([4]; first compound 100 µM) was 0.327, the relative viability ([4]; first compound 316.23 µM) was 0.337 and the relative viability ([4]; first compound 1000 µM) was 0.401.
